Among the data in patent publication US6831199B1, “Pyrimidine compounds and derivatives thereof” (G. D. Searle & Co., priority 1995, dated 2004) are IC50 values, retold here.

Where a name gives a salt, the structure may show the parent alone.

This experiment deals with M21 human melanoma cells. Briefly: M21 melanoma cell adhesion assay (αvβ3-dependent adhesion to human fibrinogen-coated plates). The following applies: Homo sapiens, M21; read-out: M21 Melanoma Cells IC50. The class given is cell-based.

The IC50 is the concentration at which inhibition is half-maximal. Take `Cc1ccc(SCCC(CC(=O)O)NC(=O)CNC(=O)c2cccc(NC(=N)N)c2)cc1` (racemic) [Example 66, (±)3-[[2-[[[3-[(aminoiminomethyl)amino]phenyl]carbonyl]amino]acetyl]amino]-5-[(4-methylphenyl)thio]pentanoic acid, trifluoroacetate salt]: the IC50 stood at 2.51 nM.

`C#C[C@H](CC(=O)O)NC(=O)CNC(=O)c1cccc(NC2=NCCCCC2)c1` [Example 30, βS-[[2-[[[3-[(3,4,5,6-tetrahydro-2H-azepin-7-yl)amino]phenyl]carbonyl]amino]acetyl]amino]-4-pentynoic acid, trifluoroacetate salt]: the IC50 came to 320 nM.
